Measured values as given in US6420427B1, “Aminobutyric acid derivatives” (Ono Pharmaceutical Co., Ltd., priority 1997, dated 2002).
pIC50: −log10 of the molar value.

Columns and labels:
Type in all cases: biochemical
[1] = target: T1, gelatinase A (Homo sapiens, UniProt P08253); experiment: Inhibitory activity against gelatinase A; details: progelatinase A from human normal skin dermal fibroblasts (HNDF), APMA-activated; fluorogenic substrate MOCAc-Pro-Leu-Gly-A2pr(Dnp)-Ala-Arg-NH2 13.5 μM, 37° C.
T1 construct: endogenous in cells; host or cells: human normal skin dermal fibroblasts (HNDF)
T1 sequence (P08253 110-660): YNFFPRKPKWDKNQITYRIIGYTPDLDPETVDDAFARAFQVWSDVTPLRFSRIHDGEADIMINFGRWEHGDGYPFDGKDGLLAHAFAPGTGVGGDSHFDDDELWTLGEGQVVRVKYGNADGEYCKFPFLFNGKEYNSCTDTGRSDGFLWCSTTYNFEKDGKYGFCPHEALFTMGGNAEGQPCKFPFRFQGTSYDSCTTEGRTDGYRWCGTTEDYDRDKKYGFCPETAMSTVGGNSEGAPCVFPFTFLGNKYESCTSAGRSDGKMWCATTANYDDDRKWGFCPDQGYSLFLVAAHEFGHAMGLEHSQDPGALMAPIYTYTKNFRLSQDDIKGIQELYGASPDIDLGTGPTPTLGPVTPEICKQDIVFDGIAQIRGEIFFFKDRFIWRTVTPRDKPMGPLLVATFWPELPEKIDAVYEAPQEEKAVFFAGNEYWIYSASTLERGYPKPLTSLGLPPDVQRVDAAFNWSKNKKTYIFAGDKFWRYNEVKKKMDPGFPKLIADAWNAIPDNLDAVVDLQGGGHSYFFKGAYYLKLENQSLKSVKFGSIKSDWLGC
Experimental: (1) Inhibitory Activity Against Gelatinase A
The progelatinase A (5 μl; in assay buffer (40 μl)) was purified from human normal skin dermal fibroblasts (HNDF). It was activated by the addition of 10 mM of p-aminophenylmercuric acetate (APMA) ([…]) for 1 hour at 37° C.
A mixture of the synthetic substrate (MOCAc-Pro-Leu-Gly-A2pr(Dnp)-Ala-Arg-NH2) (130 μl; a final concentration 13.5 μM) and a solution (20 μl) with or without various concentrations of the test compound was preincubated for 5 minutes at 37° C.
The solution of activated gelatinase A (50 μl/well) was mixed with the mixture and the mixture was incubated for 15 minutes at 37° C. The enzyme reaction was started. The enzyme activity was represented by increasing value of fluorescent intensity [Ex=325 nm (Ex)/393 nm (Em)] per 1 minute. Inhibitory activity was represented by inhibitory percentage (%) per enzyme activity without the test compound. For example, IC50 of the compound as Example 71 is 0.50 nM.

[2] = target: T2, collagenase (Homo sapiens, UniProt P03956); experiment: Inhibitory activity against collagenase; details: procollagenase from HNDF, trypsin-activated; thioester substrate 1.33 mM, 26° C., absorption at 324 nm
T2 construct: endogenous in cells; host or cells: human normal skin dermal fibroblasts (HNDF)
T2 sequence (P03956 100-469): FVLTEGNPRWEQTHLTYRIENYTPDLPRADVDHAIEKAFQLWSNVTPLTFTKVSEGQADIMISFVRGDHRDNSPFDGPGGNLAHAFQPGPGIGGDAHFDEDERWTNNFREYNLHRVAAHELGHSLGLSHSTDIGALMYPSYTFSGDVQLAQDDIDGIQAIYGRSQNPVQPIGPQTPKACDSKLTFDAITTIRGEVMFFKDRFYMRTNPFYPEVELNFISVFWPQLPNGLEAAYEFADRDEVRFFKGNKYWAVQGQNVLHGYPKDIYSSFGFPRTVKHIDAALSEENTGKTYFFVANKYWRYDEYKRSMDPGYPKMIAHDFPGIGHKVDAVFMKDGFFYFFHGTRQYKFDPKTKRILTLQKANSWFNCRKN
Experimental: (2) Inhibitory Activity Against Collagenase
The procollagenase (5 μl; in assay buffer (105 μl)) was purified from human normal skin dermal fibroblasts (HNDF). It was activated by the addition of 1 mg/ml Trypsin (45 μl) for 1 minute at 37° C. Trypsin was inactivated by addition of 5 mg/ml soybean trypsin inhibitor (SBTI; 50 μl).
A mixture of the synthetic substrate (Ac-Pro-Leu-Gly-[2-mercapto-4-methyl-pentanoyl]-Leu-Gly-OEt) (105 μl; a final concentration 1.33 mM) and a solution (20 μl) with or without various concentrations of the test compound was preincubated for 5 minutes at 26° C.
The solution of activated enzyme (75 μl/tube, 50 μl) was mixed with the mixture and the mixture was incubated for 10 minutes at 26° C.
Absorption at 324 nm was measured at 40 points over 10 minutes. Vmax value was determined as measured value in 30 points therein.

[3] = target: T3, human stromelysin (Homo sapiens, UniProt P08254); experiment: Inhibitory activity against stromelysin; details: APMA-activated, substrate NFF-3, pH 7.5, 37° C.
T3 construct: purchased Yagai
Experimental: (3) Inhibitory Activity Against Stromelysin ps [Method]
The mixture of human stromelysin (Yagai; 9 volume) and 10 mM p-aminophenylmercury acetate (1 volume) was activated for 20 hours at 37° C. A solution of the test compound in dimethylsulfoxide (10 μl) and 0.5 mM solution (10 μl) of 10 mM solution of the synthetic substrate NFF-3 (Mca-Arg-Pro-Lys-Pro-Val-Glu-Nva-Trp-Arg-Lys(DNP)-NH2., Nva: norvaline, Peptide Laboratory) in dimethylsulfoxide diluted by water were added to assay buffer (50 mM tris-HCl, 10 mM CaCl2, 0.05% Brij35, 0.02% NaN3 (pH 7.5)) (150 μl). Furthermore, assay buffer (30 μl) was added to the mixture. The mixture was incubated for 10 minutes at 37° C. The reaction was started by addition of a solution of the above activated stromelysin solution (50 μl). The enzyme activity was represented by increasing value of fluorescent intensity [Ex=325 nm (Ex)/393 nm (Em)] per 1 minute. Inhibitory activity was represented by inhibitory percentage (%) per enzyme activity without the test compound.

T3 sequence (P08254 100-477): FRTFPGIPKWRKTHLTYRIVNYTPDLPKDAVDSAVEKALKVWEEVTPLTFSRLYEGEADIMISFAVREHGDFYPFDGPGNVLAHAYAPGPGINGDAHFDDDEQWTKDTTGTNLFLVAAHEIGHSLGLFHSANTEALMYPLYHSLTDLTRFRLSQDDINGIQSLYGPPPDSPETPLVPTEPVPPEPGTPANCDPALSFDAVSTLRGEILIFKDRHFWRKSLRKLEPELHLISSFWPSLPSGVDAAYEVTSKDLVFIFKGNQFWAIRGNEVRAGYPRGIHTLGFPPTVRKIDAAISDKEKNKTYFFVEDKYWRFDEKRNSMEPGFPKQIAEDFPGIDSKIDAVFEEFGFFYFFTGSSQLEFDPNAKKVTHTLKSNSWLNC

pIC50 [1]: 9.30
pIC50 [2]: 5.60
pIC50 [3]: 7.59
Compound: CCOCOC[C@H](C[C@H](C)C(=O)NO)NC(=O)c1ccc(Oc2ccccc2)cc1 [Example 71, N-Hydroxy-2(S)-methyl-5-ethoxymethoxy-4(S)-[N-(4-phenoxyphenylcarbonyl)-amino]pentanamide]
